Patent US20240043444A1, “METHODS FOR TREATING SPINOCEREBELLAR ATAXIA TYPE 3” (PTC Therapeutics, Inc., priority 2021, published 2024)

What was measured:
[1] = system: Endogenous Total ATXN3 (tATXN3) Protein; assay: Endogenous Total ATXN3 (tATXN3) Protein Assay (MSD immunoassay of cell lysates); assay type: cell-based; details: cells incubated with compound 48 h; 7-point concentration curve; MSD plate readout
Experimental: Meso Scale Discovery (MSD) 96-well or 384-well plates were coated overnight at 4° C. with Ataxin 3 mouse monoclonal antibody (Invitrogen, MA3-082) at a concentration of […] in PBS (30 μL per well). Plates were then washed three times with 300 μL wash buffer (0.05% TWEEN®-20, polyethylene glycol sorbitan monolaurate, in PBS) and blocked (Meso Scale Diagnostics, R93BA-1; 5% BSA in PBS) for 2 h at room temperature with rotational shaking and then washed three times with wash buffer.
(§1) Test compounds were serially diluted 3.16-fold in 100% DMSO to generate a 7-point concentration curve. Aliquots of 0.5 μL of diluted compounds were transferred to a 96-well flat bottom plate by a liquid handler. An aliquot of 0.5 μL DMSO was also transferred to separate wells and used as controls. Duplicate samples were set up for each compound concentration and for the DMSO control.
Cells were thawed and incubated in cell culture media (DMEM, 10% FBS, and 1% antibiotic cocktail) for 72 h. Cells were trypsinized, counted, and re-suspended to a concentration of 100,000 cells/mL in cell culture media. A 100 μL aliquot of the cell suspensions were plated at 10,000 cells per well in the compound containing 96 well microtiter plate and incubated for in a cell culture incubator (37° C., 5% CO2, 100% relative humidity). After 48 h, the medium was removed and 50-100 μL of lysis buffer (Meso Scale Diagnostics, R60TX-2) containing 1× halt protease inhibitor cocktail of (Thermo Scientific, Halt™ Protease Inhibitor Cocktail, 78430) per well was added to cells to provide a “cell lysate”. The plate was placed on a shaker at 4° C. for 30 minutes, then stored at −80° C.
Cell lysate samples (25 μL) were transferred to the antibody-coated MSD plate and incubated overnight at 4° C. After removal of the lysates, the plate was washed three times with wash buffer, and 25 μL of Ataxin 3 recombinant rabbit monoclonal antibody (Invitrogen, #702788) secondary antibody (diluted to 0.25 μg/mL in 0.05% TWEEN®-20 in blocking buffer) was added to each well and incubated with shaking for 1-2 h at room temperature. Following incubation with the secondary antibody, the wells were rinsed with wash buffer and then 25 μL of Anti Rabbit Antibody Goat SULFO-TAG Labeled (Meso Scale Diagnostics, R32AB-1) detecting antibody (diluted to 0.25 μg/mL in 0.05% TWEEN®-20 in blocking buffer) was added to each well and incubated with shaking for 1 h at room temperature. After rinsing three times with wash buffer, 150 μL of Read Buffer T with surfactant (tris-based buffer containing tripropylamine, Meso Scale Diagnostics, R92TC-1) were added to each empty well, and the plate was imaged on a SI 6000 imager (MSD) according to manufacturers' instructions provided for 96- or 384-well plates.

[2] = system: ATXN3 Pre-mRNA (exon 4 skipping); assay: RT-qPCR Assay to Quantify Exon 4 Skipping in ATXN3 Pre-mRNA in Cells; assay type: cell-based; details: cells incubated with compound 24 h, normalised to GAPDH, 7-point concentration curve
Experimental: as §1
Cells were thawed and incubated in cell culture media (DMEM, 10% FBS, and 1% antibiotic cocktail) for 72 h. Cells were trypsinized, counted, and re-suspended to a concentration of 100,000 cells/mL in cell culture media. A 100 μL aliquot of the cell suspensions were plated at 10,000 cells per well in the compound containing 96 well microtiter plate and incubated for in a cell culture incubator (37° C., 5% CO2, 100% relative humidity).
After 24 h, media was aspirated from the cells and 50 μL of the RCL2 lysis buffer (10 mM Tris-HCL pH 7.4, 150 mM NaCl, 0.33% IGEPAL® CA-630) was added to each well and incubated at room temperature for 1 min. Chilled nuclease free water (50 μL per well) was added and the plates were immediately transferred on ice. After 1 min on ice, plates were frozen at −80° C. overnight.
Preparation of RT-qPCR Reaction Mixture:
An aliquot of 2 μL/well of the cell lysates was transferred using the liquid handler to the Armadillo 384-Well PCR plate containing 8 μL/well of the RT-qPCR reaction mixture that was prepared as detailed above. The plates were then sealed with MicroAmp™ Optical Adhesive Film followed by spinning down for 1 min and placed in the CFX384 thermocycler (BioRad).
The RT-qPCR was carried out at the following temperatures for the indicated time: • Step 1: 48° C. (30 min) • Step 2: 95° C. (10 min) • Step 3: 95° C. (15 sec) • Step 4: 60° C. (1 min); then, repeated Steps 3 and 4 for a total of 40 cycles.
The percent exon 4 skipping was calculated for each dose of compound treatment using Equations 1 and 2.
Data were fit to a dose response curve and the IC50 was interpolated using XLfit® statistical and curve fitting package.
An IC50 value between >2.0 μM and ≤3.0 μM is indicated by one star (*). […] IC50 value between >0.5 μM and ≤1.0 μM is indicated by four stars (****). An IC50 value ≤0.5 μM is indicated by five stars (*****).

C[C@H](N)Cc1sc2c(NCc3ccco3)nc(Cl)nc2c1Br [Cpd 40, 6-[(2S)-2-aminopropyl]-7-bromo-2-chloro-N-[(furan-2-yl)methyl]thieno[3,2-d]pyrimidin-4-amine]
IC50 [1]: ≤ 500 nM | IC50 [2]: ≤ 500 nM

Cc1c(C[C@H](C)N)sc2c(NCc3ncc(F)s3)nc(Cl)nc12 [Cpd 93, 6-[(2S)-2-aminopropyl]-2-chloro-N-[(5-fluoro-1,3-thiazol-2-yl)methyl]-7-methylthieno[3,2-d]pyrimidin-4-amine]
IC50 [1]: ≤ 500 nM | IC50 [2]: ≤ 500 nM

Cc1csc2c(NCc3ccncc3)nc(Cl)nc12 [Cpd 23, 2-chloro-7-methyl-N-[(pyridin-4-yl)methyl]thieno[3,2-d]pyrimidin-4-amine]
IC50 (average, total ATXN3 protein) [1]: inactive | IC50 (exon 4 skipping in ATXN3 pre-mRNA) [2]: inactive

Cc1c([C@@H](C)N)sc2c(NCc3ccco3)nc(Cl)nc12 [Cpd 94, 6-[(1R)-1-aminoethyl]-2-chloro-N-[(furan-2-yl)methyl]-7-methylthieno[3,2-d]pyrimidin-4-amine]
IC50 (average, total ATXN3 protein) [1]: inactive | IC50 (exon 4 skipping in ATXN3 pre-mRNA) [2]: inactive

Cc1c(C[C@@H](N)CCO)sc2c(NCc3ccco3)nc(Cl)nc12 [Cpd 97, (3S)-3-amino-4-(2-chloro-4-{[(furan-2-yl)methyl]amino}-7-methylthieno[3,2-d]pyrimidin-6-yl)butan-1-ol]
IC50 [1]: ≤ 500 nM | IC50 [2]: ≤ 500 nM

Cc1c(C2CCNC2)sc2c(NCc3ccco3)nc(Cl)nc12 (centres unmarked) [Cpd 57, 2-chloro-N-[(furan-2-yl)methyl]-7-methyl-6-(pyrrolidin-3-yl)thieno[3,2-d]pyrimidin-4-amine]
IC50 (average, total ATXN3 protein) [1]: inactive | IC50 (exon 4 skipping in ATXN3 pre-mRNA) [2]: inactive

Cc1c(C[C@@H](N)CCF)sc2c(NCc3ccco3)nc(Cl)nc12 [Cpd 51, 6-[(2S)-2-amino-4-fluorobutyl]-2-chloro-N-[(furan-2-yl)methyl]-7-methylthieno[3,2-d]pyrimidin-4-amine]
IC50 [1]: ≤ 500 nM | IC50 [2]: ≤ 500 nM

Cc1c(C[C@H](C)N)sc2c(NCc3c(F)cncc3F)nc(Cl)nc12 [Cpd 64, 6-[(2S)-2-aminopropyl]-2-chloro-N-[(3,5-difluoropyridin-4-yl)methyl]-7-methylthieno[3,2-d]pyrimidin-4-amine]
IC50 [1]: 1000 to 1500 nM | IC50 [2]: 500 to 1000 nM

Cc1c(C[C@H](C)N)sc2c(NCc3cccs3)nc(Cl)nc12 [Cpd 28, 6-[(2S)-2-aminopropyl]-2-chloro-7-methyl-N-[(thiophen-2-yl)methyl]thieno[3,2-d]pyrimidin-4-amine]
IC50 [1]: ≤ 500 nM | IC50 [2]: ≤ 500 nM

CC(C)(C)[C@H](N)Cc1cc2nc(Cl)nc(NCc3ccco3)c2s1 [Cpd 7, 6-[(2R)-2-amino-3,3-dimethylbutyl]-2-chloro-N-[(furan-2-yl)methyl]thieno[3,2-d]pyrimidin-4-amine]
IC50 (average, total ATXN3 protein) [1]: inactive | IC50 (exon 4 skipping in ATXN3 pre-mRNA) [2]: inactive

Clc1nc(NCc2cccs2)c2scc(Br)c2n1 [Cpd 80, 7-bromo-2-chloro-N-[(thiophen-2-yl)methyl]thieno[3,2-d]pyrimidin-4-amine]
IC50 (average, total ATXN3 protein) [1]: inactive | IC50 (exon 4 skipping in ATXN3 pre-mRNA) [2]: inactive

Cc1c(C[C@@H](N)CO)sc2c(NCc3cccs3)nc(Cl)nc12 [Cpd 56, (2R)-2-amino-3-(2-chloro-7-methyl-4-{[(thiophen-2-yl)methyl]amino}thieno[3,2-d]pyrimidin-6-yl)propan-1-ol]
IC50 [1]: ≤ 500 nM | IC50 [2]: ≤ 500 nM

Cc1c(C[C@H](C)CO)sc2c(NCc3ccco3)nc(Cl)nc12 [Cpd 66, (2S)-3-(2-chloro-4-{[(furan-2-yl)methyl]amino}-7-methylthieno[3,2-d]pyrimidin-6-yl)-2-methylpropan-1-ol]
IC50 (average, total ATXN3 protein) [1]: inactive | IC50 (exon 4 skipping in ATXN3 pre-mRNA) [2]: inactive

Cc1c(C[C@H](C)N)sc2c(NCc3ccncc3F)nc(Cl)nc12 [Cpd 35, 6-[(2S)-2-aminopropyl]-2-chloro-N-[(3-fluoropyridin-4-yl)methyl]-7-methylthieno[3,2-d]pyrimidin-4-amine]
IC50 [1]: ≤ 500 nM | IC50 [2]: ≤ 500 nM

Cc1c(CCCN)sc2c(NCc3ccco3)nc(Cl)nc12 [Cpd 67, 6-(3-aminopropyl)-2-chloro-N-[(furan-2-yl)methyl]-7-methylthieno[3,2-d]pyrimidin-4-amine]
IC50 (average, total ATXN3 protein) [1]: inactive | IC50 (exon 4 skipping in ATXN3 pre-mRNA) [2]: inactive

Cc1c([C@H](C)N)sc2c(NCc3ccco3)nc(Cl)nc12 [Cpd 47, 6-[(1S)-1-aminoethyl]-2-chloro-N-[(furan-2-yl)methyl]-7-methylthieno[3,2-d]pyrimidin-4-amine]
IC50 (average, total ATXN3 protein) [1]: inactive | IC50 (exon 4 skipping in ATXN3 pre-mRNA) [2]: inactive

Cc1c(C[C@H](C)N)sc2c(NCc3ccco3)nc(Cl)nc12 [Cpd 12, 6-[(2S)-2-aminopropyl]-2-chloro-N-[(furan-2-yl)methyl]-7-methylthieno[3,2-d]pyrimidin-4-amine]
IC50 [1]: ≤ 500 nM | IC50 [2]: ≤ 500 nM

Cc1c(C[C@H](C)N)sc2c(NCc3ncc[nH]3)nc(Cl)nc12 [Cpd 73, 6-[(2S)-2-aminopropyl]-2-chloro-N-[(1H-imidazol-2-yl)methyl]-7-methylthieno[3,2-d]pyrimidin-4-amine]
IC50 (average, total ATXN3 protein) [1]: inactive | IC50 (exon 4 skipping in ATXN3 pre-mRNA) [2]: inactive

Cc1c(C[C@H](C)NC2CCC2)sc2c(NCc3ccco3)nc(Cl)nc12 [Cpd 78, 2-chloro-6-[(2S)-2-(cyclobutylamino)propyl]-N-[(furan-2-yl)methyl]-7-methylthieno[3,2-d]pyrimidin-4-amine]
IC50 [1]: 1500 to 2000 nM | IC50 [2]: 1000 to 1500 nM

Cc1ccoc1CNc1nc(Cl)nc2c(C)c(C[C@H](C)N)sc12 [Cpd 30, 6-[(2S)-2-aminopropyl]-2-chloro-7-methyl-N-[(3-methylfuran-2-yl)methyl]thieno[3,2-d]pyrimidin-4-amine]
IC50 [1]: 1500 to 2000 nM | IC50 [2]: 1000 to 1500 nM

CC[C@H](N)Cc1sc2c(NCc3ccns3)nc(Cl)nc2c1C [Cpd 62, 6-[(2S)-2-aminobutyl]-2-chloro-7-methyl-N-[(1,2-thiazol-5-yl)methyl]thieno[3,2-d]pyrimidin-4-amine]
IC50 [1]: ≤ 500 nM | IC50 [2]: ≤ 500 nM

Cc1c(C[C@H](C)N)sc2c(NCc3ccco3)nc(Br)nc12 [Cpd 38, 6-[(2S)-2-aminopropyl]-2-bromo-N-[(furan-2-yl)methyl]-7-methylthieno[3,2-d]pyrimidin-4-amine]
IC50 [1]: ≤ 500 nM | IC50 [2]: ≤ 500 nM
